Reference: EP0679081B1, “PHARMACEUTICAL COMPOSITIONS FOR PREVENTION AND TREATMENT OF CANCEROUS DISEASE AND PROCESS FOR THEIR PREPARATION” (priority 1993, dated 1995)

System: Sp2/0-Ag14 mouse myeloma cells
Assay: Effect on number of viable Sp2/0-Ag14 cells in culture (trypan blue dye exclusion count)
Conditions: for number of cells as compared to the number of untreated cells: substance used alone, statement in words
Method: In the experiments the newest methods approved by the scientific literature were used. In case of Sp2/0-Ag14 and K562 lines, the logarithmically growing cells were harvested from the medium and resuspended in a 96-well plate used for cell culture to a final concentration of 4x10^4 Sp2/0-Ag14 cells and 2x10^4 K562 cells, respectively, in 250 µl appropriate medium per well containing the tested materials in the indicated concentrations. In case of HeLa, HEp-2 and Vero cells, the cultured cells were harvested from 75 % confluent tissue culture flasks with 0.2 % trypsin and resuspended in the appropriate medium at a density of 10^5 cells/ml. Aliquots (100 µl) were dispensed into 96-well micro plates and incubated for 24 hours. Then the medium was discarded and replaced with 250 µl fresh medium containing the tested compounds in the indicated concentrations. All kinds of cells were allowed to proliferate for 48 hours. The number of viable Sp2/0-Ag14 and K562 cells was then counted microscopically with the trypan blue dye exclusion method. The survival of HeLa, HEp-2 and Vero cells was measured by assessing the endogenous alkaline phosphatase activity of the cells. Results were evaluated using Student's t-test. Data after the mean values in the Tables and signs in the Figures mean: "standard error of mean" (SEM).
In case of L-tryptophan for example the 2-4th control experiments show the effects of 0.002; 0.006; and 0.01 % by mass, resp., of L-tryptophan alone on the number of cells.
In Table 2 the amounts of materials expressed in % by mass and multiplied by 1000 are shown, thus the numbers in the Table should read by multiplying with 10^-3; for example in Example 21 in case of L-tryptophan the number 6 means 6 x 10^-3, that is 0.006 % by mass. The conditions of the experiments were the same as before.
To help the comparability with the earlier results Sp2/0-Ag14 cells were also used and the experimental conditions were the same as before. On the vertical axis the changes of the amounts of cells expressed in the percentage of the amounts of untreated cells are shown. On the horizontal axis the changes expressed in % of the compositions (changes of the amounts of the active ingredients) are shown. […] Thus, the 80 % composition of Example 99 contains every component in an amount of 80 %.
The composition of the control mixtures was given in connection with Table 1.
As a function of time the effect of the 100 % composition of Example 103 on Sp2/0-Ag14 cells was investigated and compared to the 100 % control mixture and to untreated cells. The experimental conditions were the same as in the previous experiments except that in this case the cells were counted not only after 48 hr but also after 6; 12; 24; and 36 hr. On the vertical axis the cell number/ml is shown. On the horizontal axis the time is shown in hours.

[1] = Table 1, number of cells after 48 hr incubation, mean ± SEM, untreated cells 59.1 ±3.2
[2] = Table 2 (first part), number of cells after 48 hr, mean ± SEM, untreated cells 74.3 ± 3.9
[3] = Table 2 (second part), number of cells after 48 hr, mean ± SEM, untreated cells 74.3 ± 3.9
[4] = Table 2 (first part), 48 hr, untreated cells = 100 %, mean ± SEM

Structure (SMILES)	CHANGE OF THE NUMBER OF CELLS (x 10^4) [1]	IN% OF THE UNTREATED CELLS (mouse, sp2/0-ag14 cells, 48 h)	IN % OF THE UN-TREATED CELLS (mouse, sp2/0-ag14 cells, 48 h)	other results
O=CC[C@H](O)[C@H](O)CO [Control 7, 2-deoxy-D-ribose]	59.8±1.2 x 10^4	101.1±2.2%		
O=C(O)CCCC[C@@H]1SC[C@@H]2NC(=O)N[C@@H]21 [Control 25, d-biotin]			99.9 ± 3.1%	CHANGE OF THE NUMBER OF CELLS (x 10^4) [2]: 74.2 ± 2.3 x 10^4
Nc1ncnc2nc[nH]c12 [Control 11, adenine]	58.2 ±1.8 x 10^4	98.5 ±3.2%		
N[C@@H](Cc1c[nH]c2ccccc12)C(=O)O [L-tryptophan]				number of cells as compared to the number of untreated cells (48 hr): increased slightly
N[C@@H](Cc1c[nH]cn1)C(=O)O [Control 24, L-histidine]			108.7 ± 2.7%	CHANGE OF THE NUMBER OF CELLS (x 10^4) [2]: 80.7 ± 2.0 x 10^4; number of cells as compared to the number of untreated cells (48 hr): slightly increased
O=CC[C@H](O)[C@H](O)CO [Control 6, 2-deoxy-D-ribose]	59.3±2.3 x 10^4			
Cc1cc2nc3c(=O)[nH]c(=O)nc-3n(C[C@H](O)[C@H](O)[C@H](O)CO)c2cc1C [Control 29, riboflavin]			103.5 ± 2.2%	CHANGE OF THE NUMBER OF CELLS (x 10^4) [2]: 76.9 ± 1.7 x 10^4; number of cells as compared to the number of untreated cells (48 hr): slightly increased
O=C[C@@H](O)[C@@H](O)[C@H](O)[C@H](O)CO [Control 30, D-mannose]			98.4 ± 1.5%	CHANGE OF THE NUMBER OF CELLS (x 10^4) [3]: 73.1 ± 1.1 x 10^4
N[C@@H](Cc1c[nH]c2ccccc12)C(=O)O [Control 2, L-tryptophan]	61.7±3.0 x 10^4	104.4±5.0%		
N[C@@H](Cc1ccc(O)cc1)C(=O)O [Control 28, L-tyrosine]				IN % OF THE UN-TREATED CELLS [4]: 94.9 ± 1.5%; CHANGE OF THE NUMBER OF CELLS (x 10^4) [2]: 70.5 ± 1.1 x 10^4
O=C(O)CC(O)C(=O)O (stereo not shown) [Control 16, malic acid]	58.8±2.5 x 10^4	99.5±4.5%		
N=C(N)NCCC[C@H](N)C(=O)O [Control 23, L-arginine]				IN % OF THE UN-TREATED CELLS [4]: 103.4 ± 1.8%; CHANGE OF THE NUMBER OF CELLS (x 10^4) [2]: 76.8 ± 1.3 x 10^4; number of cells as compared to the number of untreated cells (48 hr): slightly increased
O=C1O[C@H]([C@@H](O)CO)C(O)=C1O [Control 18, L-ascorbic acid]	58.2±1.4 x 10^4	98.5 ±2.5%		
N[C@@H](Cc1c[nH]c2ccccc12)C(=O)O [Control 3, L-tryptophan]	62.6±2.0 x 10^4	106.0±3.4%		
N[C@@H](Cc1c[nH]c2ccccc12)C(=O)O [Control 4, L-tryptophan]	63.0±3.4 x 10^4	106.6±5.8%		
CSCC[C@H](N)C(=O)O [Control 27, L-methionine]			98.7 ± 3.6%	CHANGE OF THE NUMBER OF CELLS (x 10^4) [2]: 73.3 ± 2.7 x 10^4
Cc1cc2nc3c(=O)[nH]c(=O)nc-3n(C[C@H](O)[C@H](O)[C@H](O)COP(=O)(O)O)c2cc1C [Control 32, riboflavin-5'-phosphate]			98.9 ± 1.8%	CHANGE OF THE NUMBER OF CELLS (x 10^4) [3]: 73.5 ± 1.3 x 10^4
O=C(O)CNC(=O)c1ccccc1 [Control 31, N-benzoylglycine]			99.8 ± 2.1%	CHANGE OF THE NUMBER OF CELLS (x 10^4) [3]: 74.2 ± 1.6 x 10^4
O=C1O[C@H]([C@@H](O)CO)C(O)=C1O [Control 20, L-ascorbic acid]	56.3 ±2.6 x 10^4	95.2 ±4.8%		
Nc1ncnc2nc[nH]c12 [Control 12, adenine]	58.6 ± 1.5 x 10^4	99.1 ± 2.8%		
O=C(O)c1cc(=O)[nH]c(=O)[nH]1 [Control 33, orotic acid]			94.2 ± 1.7%	CHANGE OF THE NUMBER OF CELLS (x 10^4) [3]: 70.0 ± 1.3 x 10^4
O=C(O)CC(O)C(=O)O (stereo not shown) [Control 15, malic acid]	60.4 ± 1.7 x 10^4	102.2 ± 3.0%		
Nc1ncnc2nc[nH]c12 [Control 10, adenine]	60.5±1.4 x 10^4	102.4±2.5%		
O=C(O)CC(O)C(=O)O (stereo not shown) [Control 14, malic acid]	58.7 ± 2.1 x 10^4	99.3±3.7%		
N[C@@H](Cc1ccccc1)C(=O)O [Control 22, L-phenylalanine]				IN % OF THE UN-TREATED CELLS [4]: 109.4 ± 4.0%; CHANGE OF THE NUMBER OF CELLS (x 10^4) [2]: 81.3 ± 3.0 x 10^4; number of cells as compared to the number of untreated cells (48 hr): slightly increased
O=CC[C@H](O)[C@H](O)CO [Control 8, 2-deoxy-D-ribose]	59.0 ±3.2 x 10^4	99.9 ±5.9%		
O=C1O[C@H]([C@@H](O)CO)C(O)=C1O [Control 19, L-ascorbic acid]	56.7±2.1 x 10^4	96.0±3.7%		
Cc1ncc(CO)c(CO)c1O [Control 26, pyridoxine]			91.0 ± 2.1%	CHANGE OF THE NUMBER OF CELLS (x 10^4) [2]: 67.6 ± 1.6 x 10^4
